Test results reported in patent US20030180249A1, “Dosage forms for hygroscopic active ingredients” (priority 2002, published 2003).

How the values were obtained:
Format in all cases: physicochemical
[1] = Storage stability of valproate resinates (severe conditions): moisture uptake and appearance; conditions: 40° C., 75% Relative Humidity
Protocol: One gram of each dry resin and resinate were weighed out accurately on an analytical balance in an aluminum dish along with a sample of sodium valproate. They were dried for two hours @60° C. in vaccuo and then placed in an incubator was at 40° C. and 75% Relative Humidity. After 17 hours the samples were removed from the incubator and weighed and observations on appearance were noted. % weight increases were calculated.

[2] = Storage stability of valproate resinates (ambient conditions): appearance over time; conditions: ambient 25° C., 56% relative humidity
Protocol: The samples from Example 3 were re-dried @60° C. in vaccuo overnight and then exposed to ambient conditions. During the test the ambient temperature was 25° C. and relative humidity was 56%.

[3] = Release of valproate from resinate, flow-thru filtration cell, USP 24 valproic acid dissolution medium; conditions: 37° C., equivalent of 60 mg sodium valproate
Protocol: The release of valproate from Resinate A was evaluated and compared to that of sodium valproate. The evaluation was performed using a 50 ml Millipore flow-thru filtration cell operated at 37° C. The dissolution medium was prepared as described in the US Pharmacopeia 24 monograph for Valproic Acid (page 1733).
An amount for resinate containing the equivalent of 60 mg of sodium valproate was used for one test and 60 mg of sodium valproate for the other. Fractions were collected at 20, 40, and 60 minutes. Sample preparation and analysis were done according to the US Pharmacopeia 24 monograph for Valproic Acid (page 1733).

Moisture uptake (%) ([1]; 17 hours, after drying 2 h at 60° C. in vacuo): 40.4% | Observation (appearance) ([1]; after 17 hours): Liquid | Observation (appearance) ([2]; time 7:30): Sodium valproate sample is sticky; | Observation (appearance) ([2]; time 7:45): Sodium valproate sample is sticky; | % Valproate dissolved or released, 20 mins ([3]; 20 mins): 81.9% | % Valproate dissolved or released, 40 mins ([3]; 40 mins): 97.8% | % Valproate dissolved or released, 60 mins ([3]; 60 mins): 100% | Total release [3]: 60.1 mg
SMILES: CCCC(CCC)C(=O)[O-].[Na+] [Na Valproate, sodium valproate]
